Values of other authors, collected in article PMC11187573, “Identification of SARS-CoV-2 Mpro inhibitors through deep reinforcement learning for de novo drug design and computational chemistry approaches” (RSC Medicinal Chemistry, 2024).
Read-outs that look alike come from different tables or passages of the source.

Tested on: Mpro
Settings: ML dataset, cited from earlier work
[1] = Origin COVID_Moonshot, ref COVID Moonshot

| SMILES | IC50 [1] | IC50 (Origin ChEMBL, ref ChEMBL) |
| --- | --- | --- |
| O=C(NCCc1cccc(F)c1)C(c1cccnc1)N(C(=O)c1ccco1)c1ccc(C2CCCC2)cc1 (centres unmarked) [ALP-POS-b0bc6a46-5] | 0.282 µM |  |
| COc1ccccc1OCCNC(=O)c1cc(=O)[nH]c2ccccc12 | 5.35 µM |  |
| O=C(Cc1ccc(C(F)(F)F)cc1)Nc1cncc2ccccc12 [RAL-THA-2d450e86-32] | 24.8 µM |  |
| O=C(Nc1ccc(Cl)cc1)[C@@H](c1ccccc1)N1Cc2ccccc2C1=O [LON-WEI-b2874fec-16] | 82.3 µM |  |
| CNC(=O)c1cc(Cl)cc(CC(=O)Nc2cnccc2C)c1 [RAL-THA-6b94ceba-7] | 47.7 µM |  |
| Cc1ccncc1NC(=O)Cc1cc(Cl)cc(OCc2nnc(C3CCCCC3)o2)c1 [CHO-MSK-6e55470f-7] | 17 µM |  |
| CC(C)(C)c1ccc(N(C(=O)c2ccco2)C(C(=O)N2CCOCC2)c2cccnc2)cc1 (centres unmarked) [ALP-POS-0c0a3b93-1] | 41 µM |  |
| OC(Cc1cccc(Cl)c1)Cn1cncn1 (centres unmarked) [MAT-POS-6da3605a-2] | 82.2 µM |  |
| O=C(Cn1nnc2ccccc21)N(Cc1cccc(Cl)c1)c1ccc(N2CCCCC2)cc1 [CHO-MSK-00c5269a-5] | 4.83 µM |  |
| Cc1c(N)cncc1NC(=O)Cc1cccc(C#N)c1 | 24.1 µM |  |
| Cc1ccncc1NC(=O)[C@H]1CCOc2ccc(Cl)cc21 [MAT-POS-b3e365b9-3] | 5.66 µM |  |
| O=C(Nc1cnccc1CO)[C@@H]1COc2ccc(Cl)cc21 [JAG-UCB-a3ef7265-3] | 30.4 µM |  |
| O=C(Cc1cccc(Cl)c1)Nc1nnn[nH]1 [JAN-GHE-5a013bed-11] | 45.3 µM |  |
| O=C(COc1cccc(Cl)c1)Nc1cncc2ccccc12 [ALP-POS-f13221e1-2] | 8.59 µM |  |
| O=C(c1cc(=O)[nH]c2ccccc12)N1CCN(c2ccccc2)CC1 [MAT-POS-916a2c5a-4, MAT-POS-916a2c5a-4, Mpro-x3303] | 19 µM |  |
| CC(=O)NC(C)c1cc(F)cc(Cl)c1 (centres unmarked) [DAV-CRI-3edb475e-6, Mpro-x10172] | 24.4 µM |  |
| COc1ccccc1CC(=O)Nc1cncc2ccccc12 [RAL-THA-2d450e86-39] | 35 µM |  |
| CC(C)(C)c1ccc(N(C(=O)c2nccs2)C(C(=O)NCCc2cccc(F)c2)c2cccnc2)cc1 (centres unmarked) [ALP-POS-02c6a514-49] | 0.8 µM |  |
| CC(C)c1ccncc1NC(=O)Cc1cccc(Cl)c1 [MAT-POS-bb423b95-5] | 22.9 µM |  |
| CC(C)(C)c1ccc(N(C(=O)c2cocn2)C(C(=O)NCC2CCOC2)c2cccnc2)cc1 (centres unmarked) [ALP-POS-88a7a97e-26] | 5.42 µM |  |
| O=C(NCCc1cccc(F)c1)C(c1cccnc1)N(C(=O)c1cocn1)c1ccc2scnc2c1 (centres unmarked) [ALP-POS-ced8ea4d-36] | 84 µM |  |
| Cc1ccc(C)c(-n2sc3cc(F)ccc3c2=O)c1 [CHEMBL1725120, Cc1cc(N2Sc(cc(cc3)F)c3C2=O)c(C)cc1, reference compound] |  | 0.02 µM |
| CC(C)(C)c1ccc(N(C(=O)c2ccn[nH]2)C(C(=O)NCCc2cccc(F)c2)c2cccnc2)cc1 (centres unmarked) [ALP-POS-02c6a514-52] | 1.78 µM |  |
| COc1c(Cl)cccc1OCCNC(=O)c1cc(=O)[nH]c2ccccc12 [ALP-POS-3fc1724e-1] | 11.5 µM |  |
| CC(=O)NC(C(=O)Nc1cncc2ccccc12)c1ccc(Cl)c(Cl)c1 (centres unmarked) [MAT-POS-1f3f1a6f-3] | 4.05 µM |  |
| CC(C)(C)c1ccc(N(C(=O)c2cc(CO)[nH]n2)C(C(=O)NCCc2cccc(F)c2)c2cccnc2)cc1 (centres unmarked) [ALP-POS-305f6ec3-38] | 18.8 µM |  |
| Cc1ccc(-n2sc(=O)n(Cc3ccc(F)cc3)c2=O)cc1 [CHEMBL1917204, Cc(cc1)ccc1N(C(N1Cc(cc2)ccc2F)=O)SC1=O, reference compound] |  | 0.19 µM |

| SMILES | IC50 [1] | IC50 (Origin ChEMBL, ref ChEMBL) |
| --- | --- | --- |
| CC(C)(C)c1cnc(N(C(=O)c2ccco2)C(C(=O)NCCc2cccc(F)c2)c2cccnc2)s1 (centres unmarked) [ALP-POS-b0bc6a46-12] | 3.94 µM |  |
| N#Cc1ncn(CC(=O)Nc2ccc(Br)cc2Cl)n1 [MAT-POS-e10a589d-4] | 9.3 µM |  |
| Cc1ccncc1N1CCN(c2cccc(Cl)c2)C1=O | 90.3 µM |  |
| Cc1ccncc1NC(=O)Cc1cc(Cl)cc(-c2ccc(C)c(F)c2F)c1 | 44.1 µM |  |
| CCCCOc1ccc(Cl)cc1CC(=O)Nc1cnccc1C | 20.2 µM |  |
| O=C(CC1(C(=O)Nc2cncc3ccccc23)CCOc2ccc(Cl)cc21)N1CCN(CC(F)(F)CO)CC1 (centres unmarked) [ALP-UNI-8e43a71e-10] | 7.28 µM |  |
| CS(=O)(=O)c1ccc(N(C(=O)c2cocn2)C(C(=O)NCCc2cccc(F)c2)c2cccnc2)cc1 (centres unmarked) [ALP-POS-ced8ea4d-9] | 75.9 µM |  |
| O=C(c1cc(=O)[nH]c2ccccc12)N1CCN(Cc2cccc(Cl)c2)CC1 [ERI-UCB-a0b0dbcb-12] | 4.57 µM |  |
| COCc1ccc(N(C(=O)c2c[nH]cn2)C(C(=O)NCCc2cccc(F)c2)c2cccnc2)cc1 (centres unmarked) [BRU-THA-92256091-23] | 62.9 µM |  |
| Cc1ccncc1NC(=O)Cc1cc(Cl)cc(-c2ccc(C3CC3(F)F)cc2)c1 (centres unmarked) [MAT-POS-f42f3716-1] | 5.64 µM |  |
| O=C(NCCc1cccc(F)c1)C(c1cccnc1)N(C(=O)c1cocn1)c1ccc2ncsc2c1 (centres unmarked) [ALP-POS-ced8ea4d-24] | 60.5 µM |  |
| O=C(Nc1cncc2[nH]c(=O)[nH]c12)C1CCOc2ccc(Cl)cc21 (centres unmarked) [EDG-MED-0e5afe9d-2] | 62.8 µM |  |
| CNC(=O)Nc1ccc(N(Cc2ccsc2)C(=O)Cn2nnc3ccccc32)cc1 [ROB-IMP-e811baff-1] | 8.37 µM |  |
| CN(C)C(=O)CC1(C(=O)Nc2cncc3ccccc23)CCOc2ccc(Cl)cc21 (centres unmarked) [MAT-POS-5d65ec79-1] | 2.92 µM |  |
| O=C(Nc1n[nH]c2ccnc(Br)c12)C1CCOc2ccc(Cl)cc21 (centres unmarked) [JAG-UCB-52b62a6f-15] | 86.8 µM |  |
| CC(C)(C)c1ccc(N(C(=O)c2c[nH]c(=O)[nH]2)C(C(=O)NCCc2cccc(F)c2)c2cccnc2)cc1 (centres unmarked) [ALP-POS-305f6ec3-52] | 15.9 µM |  |
| O=C(c1cc(=O)[nH]c2ccccc12)N1CCN(c2cccc(C(F)(F)F)c2)CC1 [ERI-UCB-a0b0dbcb-4] | 4.72 µM |  |
| O=C(Cc1cc(Cl)cc(Oc2cccc(=O)[nH]2)c1)Nc1cncc2ccccc12 [MAT-POS-9ff17035-2] | 1.98 µM |  |
| CN(C)c1ccc(N(Cc2ccccc2)C(=O)Cn2nnc3ccccc32)cc1 [ALP-POS-6d04362c-1] | 3.31 µM |  |
| Cc1ccncc1NC(=O)Cc1cccc(F)c1 | 95.8 µM |  |
| O=[N+]([O-])c1cc(C(F)(F)F)ccc1S(=O)(=O)c1ccc(Cl)cc1 [CHEMBL380403] |  | 12 µM |
| CN(C(=O)Cn1nnc2ccccc21)c1ccc(Oc2ccc(C(F)(F)F)cn2)cc1 [AAR-POS-8a4e0f60-7] | 37.8 µM |  |
| O=C(Cc1cccc(Cl)c1)Nc1cncc2c1CCCN2 [MAT-POS-14ad9fe9-1] | 5.66 µM |  |
| O=C(Nc1cncc2ccccc12)C(NCC1CC1)c1ccc(Cl)c(Cl)c1 (centres unmarked) [MAT-POS-1f3f1a6f-4] | 1.75 µM |  |
| CCOc1ccc(N(C(=O)c2cocn2)C(C(=O)NCCc2cccc(F)c2)c2cccnc2)cc1 (centres unmarked) [ALP-POS-ced8ea4d-67] | 15.5 µM |  |
| O=C(Cc1cc(Cl)ccc1Cl)Nc1cncc2ccccc12 [PET-UNK-dd44aeb6-2] | 1.02 µM |  |
| Cc1ccncc1NC(=O)Cc1cc(Cl)cc(CNS(C)(=O)=O)c1 [RAL-THA-6b94ceba-12] | 24.4 µM |  |

| SMILES | IC50 [1] | IC50 (Origin ChEMBL, ref ChEMBL) |
| --- | --- | --- |
| O=C(c1cc(=O)[nH]c2ccccc12)N1CCN(c2ccccc2)CC1 [MAT-POS-916a2c5a-4] | 19 µM |  |
| O=C(NCCc1cccc(F)c1)C(c1cccnc1)N(C(=O)c1cocn1)c1cn(Cc2ccccc2)cn1 (centres unmarked) [ALP-POS-ced8ea4d-35] | 27.3 µM |  |
| O=C(Cc1cc(Cl)cc(-c2nnn[nH]2)c1)Nc1cncc2ccccc12 [MAT-POS-281d2ee9-3] | 21.4 µM |  |
| CC(C(N)=O)c1cc(Cl)cc(CC(=O)Nc2cncc3ccccc23)c1 (centres unmarked) [MAT-POS-281d2ee9-1] | 2.62 µM |  |
| Cc1ccncc1NC(=O)Cc1cc(Cl)cc(NS(C)(=O)=O)c1 [WIL-MOD-03b86a88-5] | 21.8 µM |  |
| CC(C)(C)c1ccc(N(C(=O)c2c[nH]nn2)C(C(=O)NCCc2cccc(F)c2)c2cccnc2)cc1 (centres unmarked) [ALP-POS-305f6ec3-14] | 1.17 µM |  |
| O=C(Cc1cc(F)cc(Cl)c1)Nc1cncc2ccccc12 [RAL-THA-2d450e86-14] | 0.383 µM |  |
| CN1C(=O)CCc2cc(N(C(=O)c3cocn3)C(C(=O)NCCc3cccc(F)c3)c3cccnc3)ccc21 (centres unmarked) [ALP-POS-ced8ea4d-1] | 63.5 µM |  |
| CC(=O)NCc1cc(Cl)cc(CC(=O)Nc2cnccc2C)c1 | 48.4 µM |  |
| O=C(c1cc(=O)[nH]c2ccccc12)N1CCN(Cc2ccccc2)CC1 [BEN-DND-7e92b6ca-10] | 13.8 µM |  |
| O=C1CC(Oc2cc(Cl)cc(N(CCC3CCCCC3)C(=O)Nc3cncc4ccccc34)c2)N1 (centres unmarked) [MAT-POS-53907a1c-3, O=C(Nc1cncc2ccccc12)N(CCC1CCCCC1)c1cc(Cl)cc(OC(C2)NC2=O)c1, reference compound] | 0.84 µM |  |
| Cc1ccncc1NC(=O)C(C)c1cccc(Cl)c1 (centres unmarked) | 19.6 µM |  |
| CSc1ccc(CN(C(=O)c2ccco2)C(C(=O)NCCc2cccc(F)c2)c2cccnc2)cc1C#N (centres unmarked) [ALP-POS-b0bc6a46-20] | 54.9 µM |  |
| COCC1(C(=O)Nc2cncc3ccccc23)CCOc2cc(Cl)c(Cl)cc21 (centres unmarked) [EDJ-MED-37aac4bd-2] | 4.04 µM |  |
| O=C(NCCc1cccc(F)c1)C(c1cccnc1)N(Cc1ccccc1C1CCC1)C(=O)c1ccco1 (centres unmarked) [ALP-POS-b0bc6a46-10] | 1.93 µM |  |
| O=C(Cc1cccc(Cl)c1)Nc1cnccc1-c1ccccc1 | 33 µM |  |
| CCc1cc(F)ccc1-c1cc(Cl)cc(CC(=O)Nc2cnccc2C)c1 [MAT-POS-f42f3716-4] | 28.8 µM |  |
| O=C(NCCc1cccc(F)c1)C(c1cccnc1)N(C(=O)c1cocn1)c1ccc(Cn2cccn2)cc1 (centres unmarked) [ALP-POS-ced8ea4d-16] | 8.34 µM |  |
| Cc1ccncc1NC(=O)Cc1cccc(C#N)c1 | 52.6 µM |  |
| O=C(Cc1ccc(Cl)c(Cl)c1)Nc1cncc2ccccc12 [MAT-POS-23a8a11a-1, O=C(Cc1ccc(Cl)c(Cl)c1)Nc1cncc2ccccc12, reference compound] | 0.196 µM |  |
| Cc1ccncc1N1CCC(c2cccc(Cl)c2)S1(=O)=O (centres unmarked) [EDJ-MED-49816e9b-4] | 76.6 µM |  |
| Cc1ccncc1NC(=O)Cc1cccc(Br)c1 | 18.3 µM |  |
| CN(C)C(=O)CN1CCC(C(=O)Nc2cncc3ccccc23)c2cc(Cl)ccc21 (centres unmarked) [RAL-THA-8416115c-9] | 2.54 µM |  |
| N#Cc1cc(Cl)cc(NC(=O)Nc2cccnc2)c1 [WAR-XCH-eb7b662f-2] | 99 µM |  |
| Cc1ccccc1CC(=O)Nc1cncc2ccccc12 [RAL-THA-2d450e86-38] | 29.5 µM |  |
| Cc1ccc(S(=O)(=O)CNC(=O)C(c2cccnc2)N(C(=O)c2cocn2)c2ccc(C(C)(C)C)cc2)cc1 (centres unmarked) [ALP-POS-88a7a97e-42] | 62.9 µM |  |
